From patent publication US10160747B2, “Compounds and methods for kinase modulation, and indications therefor” (Plexxikon Inc., priority 2016, dated 2018)

Molecular target: T1, FLT3-ITD (Homo sapiens, UniProt P36888)
T1 sequence (P36888 1-993): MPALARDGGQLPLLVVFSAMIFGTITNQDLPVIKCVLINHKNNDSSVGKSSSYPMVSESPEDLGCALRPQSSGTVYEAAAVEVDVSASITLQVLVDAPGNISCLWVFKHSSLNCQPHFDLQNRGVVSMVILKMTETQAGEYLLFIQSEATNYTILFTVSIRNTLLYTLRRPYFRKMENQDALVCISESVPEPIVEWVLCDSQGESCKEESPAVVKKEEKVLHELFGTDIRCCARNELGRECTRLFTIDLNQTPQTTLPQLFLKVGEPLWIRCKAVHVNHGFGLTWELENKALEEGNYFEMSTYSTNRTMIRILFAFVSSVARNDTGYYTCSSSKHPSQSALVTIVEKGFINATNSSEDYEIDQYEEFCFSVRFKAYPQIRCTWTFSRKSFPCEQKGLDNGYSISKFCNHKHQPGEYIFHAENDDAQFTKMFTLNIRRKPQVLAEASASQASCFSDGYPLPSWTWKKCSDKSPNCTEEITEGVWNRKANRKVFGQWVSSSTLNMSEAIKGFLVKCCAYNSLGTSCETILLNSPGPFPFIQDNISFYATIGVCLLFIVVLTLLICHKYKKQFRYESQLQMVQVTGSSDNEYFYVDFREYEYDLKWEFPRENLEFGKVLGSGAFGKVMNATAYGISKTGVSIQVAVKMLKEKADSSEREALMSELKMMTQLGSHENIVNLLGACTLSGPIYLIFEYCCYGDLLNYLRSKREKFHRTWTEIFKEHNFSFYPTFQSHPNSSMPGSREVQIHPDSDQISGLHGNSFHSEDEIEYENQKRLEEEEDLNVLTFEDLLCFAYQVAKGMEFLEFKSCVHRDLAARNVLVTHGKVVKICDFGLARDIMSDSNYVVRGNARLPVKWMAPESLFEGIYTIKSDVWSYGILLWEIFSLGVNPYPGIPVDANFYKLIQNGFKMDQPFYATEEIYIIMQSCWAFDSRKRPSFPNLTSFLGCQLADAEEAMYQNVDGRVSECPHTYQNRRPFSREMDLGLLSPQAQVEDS
Assay: FLT3-ITD recombinant enzyme kinase assay (AlphaScreen)
Format: biochemical
Conditions: 8 pt; read-out: FLT3_ITD 8 pt: IC50
Method: In order to determine the effect of compounds on FLT3 catalytic activity, kinase assays using recombinant enzymes and AlphaScreen® technology have been established. The catalytic activity of c-kit activity was also measured to determine selectivity of the compounds. When the kinases are catalytically active, they phosphorylate a biotinylated peptide substrate on tyrosine residues. Using AlphaScreen® technology, the ability of the compounds to affect the catalytic activity of the kinases can be measured quantitatively. The peptide substrate is immobilized by the AlphaScreen® Streptavidin Donor beads and, upon phosphorylation by a tyrosine kinase, can bind to AlphaScreen® Anti-Phosphotyrosine (PY20) Acceptor beads. Upon excitation of these beads with laser light at 680 nm, singlet oxygen is produced. This singlet oxygen is rapidly quenched, unless the AlphaScreen® Anti-Phosphotyrosine (PY20) Acceptor beads are in close proximity, in which case a proximity signal can be measured at 580 nm. In the presence of catalytic activity, there is a very strong proximity signal. Selective kinase inhibitors affect a decrease in this proximity signal through a decrease in tyrosine phosphorylation of the peptide substrate.
The assay was performed as summarized below.
Poly (Glu4-Tyr) Peptide, biotin conjugate [Biotin-GG(EEEEY)10EE] (SEQ ID NO: 4)
Final concentration=30 nM
Adenosine Triphosphate (ATP)
Final concentration for IC50 determination=10 μM (FLT3-D835Y or FLT3-ITD) or 100 μM (c-KIT)
AlphaScreen® Phosphotyrosine (PY20) Assay Kit
Final concentration=10 μg/mL
Dilute compounds in DMSO to 20× final concentration.
Add 1 μL of compound to each well of 384 well reaction plate (Perkin Elmer #6005359).
Mix enzyme and Poly (Glu4-Tyr) Peptide substrate at 1.33× final concentration in assay buffer.
Mix ATP at 5× final concentration in assay buffer.
Add 15 μL enzyme/substrate mixture to the reaction plate.
Add 4 μL of ATP to the reaction plate.
Mix Streptavidin Donor beads at 6× final concentration in Stop/Detection buffer.
Add 5 μL Streptavidin Donor beads to the reaction plate. Centrifuge 1 minute, shake to mix, and incubate at room temperature for 20 minutes.
Mix Anti-Phosphotyrosine (PY20) Acceptor beads at 6× final concentration in Stop/Detection buffer.
Add 5 μL Anti-Phosphotyrosine (PY20) beads to the reaction plate.
Centrifuge 1 minute, shake to mix, and incubate at room temperature for 60 minutes.
Read plate on Wallac EnVision™ 2103 Multilabel Reader.

| Compound | IC50 [µM] |
| --- | --- |
| Cc1cc(-c2cnc3[nH]c(-c4ccccc4)cc3c2)ccc1CC(=O)Nc1cccc(C(F)(F)F)c1 [Compound P-0001, 2-[2-methyl-4-(2-phenyl-1H-pyrrolo[2,3-b]pyridin-5-yl)phenyl]-N-[3-(trifluoromethyl)phenyl]acetamide] | 0.0001 to 10 |
| O=C(Cc1ccc(-c2cnc3[nH]c(-c4ccccc4)cc3c2)c(F)c1)Nc1cccc(C(F)(F)F)c1 [Compound P-0003, 2-[3-fluoro-4-(2-phenyl-1H-pyrrolo[2,3-b]pyridin-5-yl)phenyl]-N-[3-(trifluoromethyl)phenyl]acetamide] | 0.0001 to 10 |
| O=C(Cc1ccc(-c2cnc3[nH]c(-c4ccccc4)cc3c2)cc1F)Nc1ccnc(C(F)(F)F)c1 [Compound P-0004, 2-[2-fluoro-4-(2-phenyl-1H-pyrrolo[2,3-b]pyridin-5-yl)phenyl]-N-[2-(trifluoromethyl)-4-pyridyl]acetamide] | 0.0001 to 10 |
| O=C(Cc1ccc(-c2cnc3[nH]c(-c4ccccc4)cc3c2)cn1)Nc1ccnc(C(F)(F)F)c1 [Compound P-0005, 2-[5-(2-phenyl-1H-pyrrolo[2,3-b]pyridin-5-yl)-2-pyridyl]-N-[2-(trifluoromethyl)-4-pyridyl]acetamide] | 0.0001 to 10 |
| Cc1ncc(NC(=O)Cc2ccc(-c3cnc(Nc4cnn(C)c4)nc3)cc2F)cc1C(F)(F)F [Compound P-0091, 2-[2-fluoro-4-[2-[(1-methylpyrazol-4-yl)amino]pyrimidin-5-yl]phenyl]-N-[6-methyl-5-(trifluoromethyl)-3-pyridyl]acetamide] | 0.0001 to 10 |
| Cn1cc(Nc2ncc(-c3ccc(CC(=O)Nc4cnc(Cl)c(C(F)(F)F)c4)c(F)c3)cn2)cn1 [Compound P-0092, N-[6-chloro-5-(trifluoromethyl)-3-pyridyl]-2-[2-fluoro-4-[2-[(1-methylpyrazol-4-yl)amino]pyrimidin-5-yl]phenyl]acetamide] | 0.0001 to 10 |
| CC(C)c1cc(NC(=O)Cc2ccc(-c3cnc(Nc4cnn(C)c4)nc3)cc2F)ccn1 [Compound P-0094, 2-[2-fluoro-4-[2-[(1-methylpyrazol-4-yl)amino]pyrimidin-5-yl]phenyl]-N-(2-isopropyl-4-pyridyl)acetamide] | 0.0001 to 10 |
| Cn1cc(Nc2ncc(-c3ccc(CC(=O)Nc4ccc(C(F)(F)F)nc4)cc3)cn2)cn1 [Compound P-0095, 2-[4-[2-[(1-methylpyrazol-4-yl)amino]pyrimidin-5-yl]phenyl]-N-[6-(trifluoromethyl)-3-pyridyl]acetamide] | 0.0001 to 10 |
| Cn1cnc(Nc2ncc(-c3ccc(CC(=O)Nc4cc(C(F)(F)F)ccn4)c(F)c3)cn2)c1 [Compound P-0096, 2-[2-fluoro-4-[2-[(1-methylimidazol-4-yl)amino]pyrimidin-5-yl]phenyl]-N-[4-(trifluoromethyl)-2-pyridyl]acetamide] | 0.0001 to 10 |
| Cn1cc(Nc2ncc(-c3ccc(CC(=O)Nc4ccnc(C5CC5)c4)cc3)cn2)cn1 [Compound P-0097, N-(2-cyclopropyl-4-pyridyl)-2-[4-[2-[(1-methylpyrazol-4-yl)amino]pyrimidin-5-yl]phenyl]acetamide] | 0.0001 to 10 |
| Cn1cc(Nc2ncc(-c3ccc(CC(=O)Nc4ccnc(C5CC5)c4)c(F)c3)cn2)cn1 [Compound P-0098, N-(2-cyclopropyl-4-pyridyl)-2-[2-fluoro-4-[2-[(1-methylpyrazol-4-yl)amino]pyrimidin-5-yl]phenyl]acetamide] | 0.0001 to 10 |
| COc1ncc(NC(=O)Cc2ccc(-c3cnc(Nc4cn(C)cn4)nc3)cc2F)cc1C(F)(F)F [Compound P-0101, 2-[2-fluoro-4-[2-[(1-methylimidazol-4-yl)amino]pyrimidin-5-yl]phenyl]-N-[6-methoxy-5-(trifluoromethyl)-3-pyridyl]acetamide] | 0.0001 to 10 |

The remaining lines, values ahead:

| IC50 [µM] | Compound |
| --- | --- |
| 0.0001 to 10 | Cc1ncc(NC(=O)Cc2ccc(-c3cnc(Nc4cn(C)cn4)nc3)cc2F)cc1C(F)(F)F [Compound P-0099, 2-[2-fluoro-4-[2-[(1-methylimidazol-4-yl)amino]pyrimidin-5-yl]phenyl]-N-[6-methyl-5-(trifluoromethyl)-3-pyridyl]acetamide] |
| 0.0001 to 10 | Cn1cnc(Nc2ncc(-c3ccc(CC(=O)Nc4cnc(Cl)c(C(F)(F)F)c4)c(F)c3)cn2)c1 [Compound P-0100, N-[6-chloro-5-(trifluoromethyl)-3-pyridyl]-2-[2-fluoro-4-[2-[(1-methylimidazol-4-yl)amino]pyrimidin-5-yl]phenyl]acetamide] |
| 0.0001 to 10 | Cn1cnc(Nc2ncc(-c3ccc(CC(=O)Nc4cc(C(C)(F)F)ccn4)c(F)c3)cn2)c1 [Compound P-0102, N-[4-(1,1-difluoroethyl)-2-pyridyl]-2-[2-fluoro-4-[2-[(1-methylimidazol-4-yl)amino]pyrimidin-5-yl]phenyl]acetamide] |
| 0.0001 to 10 | Cn1cnc(Nc2ncc(-c3ccc(CC(=O)Nc4cncc(C(C)(F)F)c4)c(F)c3)cn2)c1 [Compound P-0103, N-[5-(1,1-difluoroethyl)-3-pyridyl]-2-[2-fluoro-4-[2-[(1-methylimidazol-4-yl)amino]pyrimidin-5-yl]phenyl]acetamide] |
| 0.0001 to 10 | Cn1cc(Nc2ncc(-c3ccc(CC(=O)Nc4cnc(F)c(C(C)(F)F)c4)cc3)cn2)cn1 [Compound P-0104, N-[5-(1,1-difluoroethyl)-6-fluoro-3-pyridyl]-2-[4-[2-[(1-methylpyrazol-4-yl)amino]pyrimidin-5-yl]phenyl]acetamide] |
| 0.0001 to 10 | Cn1cc(Nc2ncc(-c3ccc(CC(=O)Nc4cnc(F)c(C(C)(F)F)c4)c(F)c3)cn2)cn1 [Compound P-0105, N-[5-(1,1-difluoroethyl)-6-fluoro-3-pyridyl]-2-[2-fluoro-4-[2-[(1-methylpyrazol-4-yl)amino]pyrimidin-5-yl]phenyl]acetamide] |
| 0.0001 to 10 | Cn1cc(Nc2ncc(-c3ccc(CC(=O)Nc4ccc(C(F)(F)F)cn4)c(F)c3)cn2)cn1 [Compound P-0106, 2-[2-fluoro-4-[2-[(1-methylpyrazol-4-yl)amino]pyrimidin-5-yl]phenyl]-N-[5-(trifluoromethyl)-2-pyridyl]acetamide] |
| 0.0001 to 10 | Cn1cc(Nc2ncc(-c3ccc(CC(=O)Nc4cc(Cl)c(C5CC5)cn4)c(F)c3)cn2)cn1 [Compound P-0107, N-(4-chloro-5-cyclopropyl-2-pyridyl)-2-[2-fluoro-4-[2-[(1-methylpyrazol-4-yl)amino]pyrimidin-5-yl]phenyl]acetamide] |
| 0.0001 to 10 | Cn1cc(Nc2ncc(-c3ccc(CC(=O)Nc4ccc(C(C)(C)C#N)nc4)c(F)c3)cn2)cn1 [Compound P-0108, N-[6-(1-cyano-1-methyl-ethyl)-3-pyridyl]-2-[2-fluoro-4-[2-[(1-methylpyrazol-4-yl)amino]pyrimidin-5-yl]phenyl]acetamide] |
| 0.0001 to 10 | Cn1cc(Nc2ncc(-c3ccc(CC(=O)Nc4ccc(C(F)(F)F)cn4)cc3)cn2)cn1 [Compound P-0109, 2-[4-[2-[(1-methylpyrazol-4-yl)amino]pyrimidin-5-yl]phenyl]-N-[5-(trifluoromethyl)-2-pyridyl]acetamide] |
| 0.0001 to 10 | Cn1cc(Nc2ncc(-c3ccc(CC(=O)Nc4ccc(C(F)(F)F)nc4)c(F)c3)cn2)cn1 [Compound P-0110, 2-[2-fluoro-4-[2-[(1-methylpyrazol-4-yl)amino]pyrimidin-5-yl]phenyl]-N-[6-(trifluoromethyl)-3-pyridyl]acetamide] |
